Test results reported in the NIST ThermoML archive (doi:10.1016/j.jct.2010.11.004).
Numbers after ± are expanded uncertainties.

Test: excess molar enthalpy (molar enthalpy of mixing); xn = mol fraction of the nth substance listed
Conditions: 298.15 K, 101 kPa, Liquid, ISOTHERMAL TITRATION CALORIMETRY

CCCCCOCCCCC [dipentyl ether] + CCCCCCCCCCCCCCCC
Conditions	excess molar enthalpy [kJ/mol]
x1 = 0.0349	0.037 ± 0.001
x1 = 0.0674	0.069 ± 0.002
x1 = 0.0979	0.096 ± 0.002
x1 = 0.1264	0.12 ± 0.002
x1 = 0.1531	0.14 ± 0.002
x1 = 0.1783	0.158 ± 0.002
x1 = 0.2066	0.177 ± 0.003
x1 = 0.233	0.193 ± 0.003
x1 = 0.2577	0.207 ± 0.003
x1 = 0.2809	0.219 ± 0.003
x1 = 0.3027	0.228 ± 0.003
x1 = 0.3231	0.236 ± 0.003
x1 = 0.3459	0.244 ± 0.003
x1 = 0.3673	0.25 ± 0.004
x1 = 0.3873	0.256 ± 0.004
x1 = 0.4061	0.26 ± 0.004
x1 = 0.4238	0.263 ± 0.004
x1 = 0.4405	0.265 ± 0.004
x1 = 0.4593	0.267 ± 0.004
x1 = 0.4768	0.268 ± 0.004
x1 = 0.4933	0.269 ± 0.004
x1 = 0.5087	0.269 ± 0.004
x1 = 0.5158	0.27 ± 0.004
x1 = 0.5271	0.27 ± 0.004
x1 = 0.5389	0.269 ± 0.004
x1 = 0.5491	0.269 ± 0.004
x1 = 0.5598	0.268 ± 0.004
x1 = 0.5706	0.267 ± 0.004
x1 = 0.5823	0.265 ± 0.004
x1 = 0.5943	0.263 ± 0.004
x1 = 0.6067	0.261 ± 0.004
x1 = 0.6197	0.258 ± 0.004
x1 = 0.6333	0.254 ± 0.004
x1 = 0.645	0.251 ± 0.004
x1 = 0.6527	0.247 ± 0.004
x1 = 0.6699	0.242 ± 0.003
x1 = 0.6831	0.237 ± 0.003
x1 = 0.6968	0.231 ± 0.003
x1 = 0.7111	0.224 ± 0.003
x1 = 0.7238	0.217 ± 0.003
x1 = 0.737	0.211 ± 0.003
x1 = 0.7506	0.203 ± 0.003
x1 = 0.7648	0.194 ± 0.003
x1 = 0.7795	0.185 ± 0.003
x1 = 0.7984	0.174 ± 0.003
x1 = 0.8182	0.163 ± 0.003
x1 = 0.8315	0.152 ± 0.002
x1 = 0.8512	0.139 ± 0.002
x1 = 0.8718	0.126 ± 0.002
x1 = 0.8935	0.111 ± 0.002
x1 = 0.9162	0.095 ± 0.002
x1 = 0.9292	0.082 ± 0.002
x1 = 0.9425	0.068 ± 0.001
x1 = 0.9563	0.052 ± 0.001
x1 = 0.9704	0.036 ± 0.001
x1 = 0.985	0.019 ± 0.001

CCCCCCCCC(C)=O [2-decanone] + CCCCCCCCCCCCCCCC
Conditions	excess molar enthalpy [kJ/mol]
x1 = 0.0372	0.201 ± 0.003
x1 = 0.0716	0.364 ± 0.005
x1 = 0.1038	0.497 ± 0.007
x1 = 0.1337	0.607 ± 0.008
x1 = 0.1617	0.698 ± 0.009
x1 = 0.188	0.773 ± 0.01
x1 = 0.2169	0.849 ± 0.011
x1 = 0.2437	0.909 ± 0.012
x1 = 0.2688	0.959 ± 0.012
x1 = 0.2923	0.999 ± 0.013
x1 = 0.3143	1.03 ± 0.013
x1 = 0.335	1.06 ± 0.013
x1 = 0.3574	1.08 ± 0.014
x1 = 0.3784	1.1 ± 0.014
x1 = 0.3981	1.11 ± 0.014
x1 = 0.4166	1.12 ± 0.014
x1 = 0.434	1.13 ± 0.014
x1 = 0.4503	1.13 ± 0.014
x1 = 0.4686	1.13 ± 0.014
x1 = 0.4857	1.13 ± 0.014
x1 = 0.5017	1.13 ± 0.014
x1 = 0.5168	1.12 ± 0.014
x1 = 0.531	1.11 ± 0.014
x1 = 0.5443	1.1 ± 0.014
x1 = 0.559	1.09 ± 0.014
x1 = 0.5728	1.08 ± 0.014
x1 = 0.5858	1.07 ± 0.014
x1 = 0.598	1.06 ± 0.013
x1 = 0.6095	1.04 ± 0.013
x1 = 0.6204	1.03 ± 0.013
x1 = 0.6324	1.02 ± 0.013
x1 = 0.6436	1 ± 0.013
x1 = 0.6542	0.986 ± 0.013
x1 = 0.6641	0.97 ± 0.012
x1 = 0.6735	0.954 ± 0.012
x1 = 0.6824	0.939 ± 0.012
x1 = 0.6964	0.906 ± 0.012
x1 = 0.7102	0.88 ± 0.011
x1 = 0.7245	0.854 ± 0.011
x1 = 0.7393	0.826 ± 0.011
x1 = 0.7521	0.8 ± 0.01
x1 = 0.7655	0.77 ± 0.01
x1 = 0.7793	0.738 ± 0.009
x1 = 0.7936	0.703 ± 0.009
x1 = 0.8084	0.665 ± 0.009
x1 = 0.8238	0.623 ± 0.008
x1 = 0.8372	0.586 ± 0.008
x1 = 0.8511	0.546 ± 0.007
x1 = 0.8654	0.501 ± 0.007
x1 = 0.8802	0.455 ± 0.006
x1 = 0.8955	0.404 ± 0.005
x1 = 0.9114	0.35 ± 0.005
x1 = 0.9251	0.302 ± 0.004
x1 = 0.9391	0.25 ± 0.004
x1 = 0.9537	0.193 ± 0.003
x1 = 0.9686	0.133 ± 0.002
x1 = 0.9841	0.068 ± 0.002
